Results published in patent US9040545B2, “Heterocyclyl pyrazolopyrimidine analogues as selective JAK inhibitors” (Cellzome Limited, priority 2010, dated 2015).
pIC50: −log10 of the molar value.

Target: T1, Aurora B (Homo sapiens, UniProt Q96GD4)
T1 construct: cell lysates from Jurkat cells (ATCC TIB-152) used; endogenous in cells; host or cells: Jurkat cells (ATCC TIB-152), treated with pervanadate
Assay: Kinobeads assay, Aurora B
Format: binding
Conditions: for pIC50: lysate of pervanadate-treated Jurkat cells, read-out: Inhibition values (IC50) Aur B

T1 sequence (Q96GD4 whole entry): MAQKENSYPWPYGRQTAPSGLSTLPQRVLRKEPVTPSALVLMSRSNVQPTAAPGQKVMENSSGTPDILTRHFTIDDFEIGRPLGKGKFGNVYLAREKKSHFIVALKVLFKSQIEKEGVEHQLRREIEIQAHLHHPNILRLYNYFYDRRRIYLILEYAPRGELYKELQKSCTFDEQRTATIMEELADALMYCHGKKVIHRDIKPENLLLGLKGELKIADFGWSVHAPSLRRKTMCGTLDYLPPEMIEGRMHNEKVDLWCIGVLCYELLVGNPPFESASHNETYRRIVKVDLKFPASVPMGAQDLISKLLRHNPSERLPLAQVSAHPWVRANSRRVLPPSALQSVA

Compound	JAK3/AurB Fold Selectivity	pIC50
O=C1CNCCN1c1cc(F)cc(Cn2ncc3cnc(Nc4cnn(CCO)c4)nc32)c1 [Example 63, 1-(3-Fluoro-5-((6-((1-(2-hydroxyethyl)-1H-pyrazol-4-yl)amino)-1H-pyrazolo[3,4-d]pyrimidin-1-yl)methyl)phenyl)piperazin-2-one]	3-10 Fold	> 7.00
Cn1cc(Nc2ncc3cnn(Cc4cc(F)cc(N5CCNCC5=O)c4)c3n2)cn1 [Example 64, 1-(3-Fluoro-5-((6-((1-methyl-1H-pyrazol-4-yl)amino)-1H-pyrazolo[3,4-d]pyrimidin-1-yl)methyl)phenyl)piperazin-2-one]	10-50 Fold	6.00 to 7.00
CNC(=O)Cn1cc(Nc2ncc3cnn(Cc4cc(F)cc(N5CCOCC5=O)c4)c3n2)cn1 [Example 68, 2-(4-((1-(3-Fluoro-5-(3-oxomorpholino)benzyl)-1H-pyrazolo[3,4-d]pyrimidin-6-yl)amino)-1H-pyrazol-1-yl)-N-methylacetamide]	>50 Fold	6.00 to 7.00
Cn1cc(Nc2ncc3cnn(Cc4c(F)ccc(N5CCOCC5=O)c4F)c3n2)cn1 [Example 69, 4-(2,4-Difluoro-3-((6-((1-methyl-1H-pyrazol-4-yl)amino)-1H-pyrazolo[3,4-d]pyrimidin-1-yl)methyl)phenyl)morpholin-3-one]	10-50 Fold	6.00 to 7.00
CN(C)CCCn1cc(Nc2ncc3cnn(Cc4c(F)c(F)cc(N5CCOCC5=O)c4F)c3n2)cn1 [Example 70, 4-(3-((6-((1-(3-(Dimethylamino)propyl)-1H-pyrazol-4-yl)amino)-1H-pyrazolo[3,4-d]pyrimidin-1-yl)methyl)-2,4,5-trifluorophenyl)morpholin-3-one]	10-50 Fold	6.00 to 7.00
O=C1CNCCN1c1cc(F)c(F)c(Cn2ncc3cnc(Nc4cnn(CCO)c4)nc32)c1 [Example 72, 1-(3,4-Difluoro-5-((6-((1-(2-hydroxyethyl)-1H-pyrazol-4-yl)amino)-1H-pyrazolo[3,4-d]pyrimidin-1-yl)methyl)phenyl)piperazin-2-one]	10-50 Fold	6.00 to 7.00
Cn1cc(Nc2ncc3cnn(Cc4cc(F)cc(N5CCOCC5=O)c4F)c3n2)cn1 [Example 73, 4-(2,5-Difluoro-3-((6-((1-methyl-1H-pyrazol-4-yl)amino)-1H-pyrazolo[3,4-d]pyrimidin-1-yl)methyl)phenyl)morpholin-3-one]	10-50 Fold	6.00 to 7.00
COC1CCN(c2cccc(Cn3ncc4cnc(Nc5cnn(C)c5)nc43)c2)CC1 [Example 77, 1-(3-(4-Methoxypiperidin-1-yl)benzyl)-N-(1-methyl-1H-pyrazol-4-yl)-1H-pyrazolo[3,4-d]pyrimidin-6-amine]	3-10 Fold	6.00 to 7.00
OCCn1cc(Nc2ncc3cnn(Cc4cc(N5CCNCC5)cc(F)c4F)c3n2)cn1 [Example 78, 2-(4-((1-(2,3-Difluoro-5-(piperazin-1-yl)benzyl)-1H-pyrazolo[3,4-d]pyrimidin-6-yl)amino)-1H-pyrazol-1-yl)ethanol]	3-10 Fold	> 7.00
Cn1cc(Nc2ncc3cnn(Cc4cc(F)cc(C(=O)N5CCOCC5)c4)c3n2)cn1 [Example 79, (3-Fluoro-5-((6-((1-methyl-1H-pyrazol-4-yl)amino)-1H-pyrazolo[3,4-d]pyrimidin-1-yl)methyl)phenyl)(morpholino)methanone]	>50 Fold	5.00 to 6.00
Cn1cc(Nc2ncc3cnn(Cc4cc(F)cc(C(=O)N5CCNCC5)c4)c3n2)cn1 [Example 80, (3-Fluoro-5-((6-((1-methyl-1H-pyrazol-4-yl)amino)-1H-pyrazolo[3,4-d]pyrimidin-1-yl)methyl)phenyl)(piperazin-1-yl)methanone]	10-50 Fold	6.00 to 7.00
Fc1cc(N2CCOCC2)c(F)c(Cn2ncc3cnc(Nc4cn[nH]c4)nc32)c1F [Example 81, N-(1H-Pyrazol-4-yl)-1-(2,3,6-trifluoro-5-morpholinobenzyl)-1H-pyrazolo[3,4-d]pyrimidin-6-amine]	10-50 Fold	6.00 to 7.00
OCCn1cc(Nc2ncc3cnn(Cc4c(F)ccc(N5CCOCC5)c4F)c3n2)cn1 [Example 82, 2-(4-((1-(2,6-Difluoro-3-morpholinobenzyl)-1H-pyrazolo[3,4-d]pyrimidin-6-yl)amino)-1H-pyrazol-1-yl)ethanol]	3-10 Fold	> 7.00
O=C(c1cccc(Cn2ncc3cnc(Nc4cnn(CCO)c4)nc32)c1F)N1CCOCC1 [Example 85, (2-Fluoro-3-((6-((1-(2-hydroxyethyl)-1H-pyrazol-4-yl)amino)-1H-pyrazolo[3,4-d]pyrimidin-1-yl)methyl)phenyl)(morpholino)methanone]	>50 Fold	5.00 to 6.00
Cn1cc(Nc2ncc3cnn(Cc4cccc(C(=O)N5CCOCC5)c4F)c3n2)cn1 [Example 87, (2-Fluoro-3-((6-((1-methyl-1H-pyrazol-4-yl)amino)-1H-pyrazolo[3,4-d]pyrimidin-1-yl)methyl)phenyl)(morpholino)methanone]	>50 Fold	5.00 to 6.00
Cn1cc(Nc2ncc3cnn(Cc4cccc(N5CCOCC5O)c4)c3n2)cn1 (stereo not shown) [Example 88, 4-(3-((6-((1-Methyl-1H-pyrazol-4-yl)amino)-1H-pyrazolo[3,4-d]pyrimidin-1-yl)methyl)phenyl)morpholin-3-ol]	>50 Fold	5.00 to 6.00

Second part, the molecule after the results:

JAK3/AurB Fold Selectivity	pIC50	Compound
>50 Fold	5.00 to 6.00	COC1CN(c2cccc(Cn3ncc4cnc(Nc5cnn(C)c5)nc43)c2)C1 [Example 65, 1-(3-(3-Methoxyazetidin-1-yl)benzyl)-N-(1-methyl-1H-pyrazol-4-yl)-1H-pyrazolo[3,4-d]pyrimidin-6-amine]
3-10 Fold	> 7.00	Cn1cc(Nc2ncc3cnn(Cc4c(F)c(F)cc(N5CCNCC5)c4F)c3n2)cn1 [Example 66, N-(1-Methyl-1H-pyrazol-4-yl)-1-(2,3,6-trifluoro-5-(piperazin-1-yl)benzyl)-1H-pyrazolo[3,4-d]pyrimidin-6-amine]
10-50 Fold	6.00 to 7.00	Cn1cc(Nc2ncc3cnn(Cc4cccc(N5CCNCC5)c4F)c3n2)cn1 [Example 67, 1-(2-Fluoro-3-(piperazin-1-yl)benzyl)-N-(1-methyl-1H-pyrazol-4-yl)-1H-pyrazolo[3,4-d]pyrimidin-6-amine]
10-50 Fold	6.00 to 7.00	Cn1cc(Nc2ncc3cnn(Cc4cc(N5CCNCC5=O)cc(F)c4F)c3n2)cn1 [Example 71, 1-(3,4-Difluoro-5-((6-((1-methyl-1H-pyrazol-4-yl)amino)-1H-pyrazolo[3,4-d]pyrimidin-1-yl)methyl)phenyl)piperazin-2-one]
10-50 Fold	> 7.00	O=C1COCCN1c1cc(F)cc(Cn2ncc3cnc(Nc4cnn(CCO)c4)nc32)c1F [Example 74, 4-(2,5-Difluoro-3-((6-((1-(2-hydroxyethyl)-1H-pyrazol-4-yl)amino)-1H-pyrazolo[3,4-d]pyrimidin-1-yl)methyl)phenyl)morpholin-3-one]
3-10 Fold	> 7.00	CN(C)CCCn1cc(Nc2ncc3cnn(Cc4c(F)ccc(N5CCOCC5=O)c4F)c3n2)cn1 [Example 75, 4-(3-((6-((1-(3-(Dimethylamino)propyl)-1H-pyrazol-4-yl)amino)-1H-pyrazolo[3,4-d]pyrimidin-1-yl)methyl)-2,4-difluorophenyl)morpholin-3-one]
3-10 Fold	6.00 to 7.00	Cn1cc(Nc2ncc3cnn(Cc4c(F)ccc(N5CCNCC5=O)c4F)c3n2)cn1 [Example 76, 1-(2,4-Difluoro-3-((6-((1-methyl-1H-pyrazol-4-yl)amino)-1H-pyrazolo[3,4-d]pyrimidin-1-yl)methyl)phenyl)piperazin-2-one]
3-10 Fold	> 7.00	OCCn1cc(Nc2ncc3cnn(Cc4cccc(N5CCNCC5)c4F)c3n2)cn1 [Example 83, 2-(4-((1-(2-Fluoro-3-(piperazin-1-yl)benzyl)-1H-pyrazolo[3,4-d]pyrimidin-6-yl)amino)-1H-pyrazol-1-yl)ethanol]
10-50 Fold	6.00 to 7.00	O=C1COCCN1c1cc(F)cc(Cn2ncc3cnc(Nc4cn[nH]c4)nc32)c1 [Example 84, 4-(3-((6-((1H-Pyrazol-4-yl)amino)-1H-pyrazolo[3,4-d]pyrimidin-1-yl)methyl)-5-fluorophenyl)morpholin-3-one]
10-50 Fold	6.00 to 7.00	Cn1cc(Nc2ncc3cnn(Cc4cc(N5CCNCC5)cc(F)c4F)c3n2)cn1 [Example 86, 1-(2,3-Difluoro-5-(piperazin-1-yl)benzyl)-N-(1-methyl-1H-pyrazol-4-yl)-1H-pyrazolo[3,4-d]pyrimidin-6-amine]
